Consider 52 molecules from patent US20250170126A1 (MITSUBISHI TANABE PHARMA CORPORATION, priority 2022, published 2025).

SMILES strings stand for the structures. pIC50: −log10 of the molar value.

The term pIC50 denotes the IC50 on a negative log10 scale, so that one unit is a factor of ten. Higher therefore signals a small IC50.

Sequence of Human B0AT1 (Q695T7 whole entry): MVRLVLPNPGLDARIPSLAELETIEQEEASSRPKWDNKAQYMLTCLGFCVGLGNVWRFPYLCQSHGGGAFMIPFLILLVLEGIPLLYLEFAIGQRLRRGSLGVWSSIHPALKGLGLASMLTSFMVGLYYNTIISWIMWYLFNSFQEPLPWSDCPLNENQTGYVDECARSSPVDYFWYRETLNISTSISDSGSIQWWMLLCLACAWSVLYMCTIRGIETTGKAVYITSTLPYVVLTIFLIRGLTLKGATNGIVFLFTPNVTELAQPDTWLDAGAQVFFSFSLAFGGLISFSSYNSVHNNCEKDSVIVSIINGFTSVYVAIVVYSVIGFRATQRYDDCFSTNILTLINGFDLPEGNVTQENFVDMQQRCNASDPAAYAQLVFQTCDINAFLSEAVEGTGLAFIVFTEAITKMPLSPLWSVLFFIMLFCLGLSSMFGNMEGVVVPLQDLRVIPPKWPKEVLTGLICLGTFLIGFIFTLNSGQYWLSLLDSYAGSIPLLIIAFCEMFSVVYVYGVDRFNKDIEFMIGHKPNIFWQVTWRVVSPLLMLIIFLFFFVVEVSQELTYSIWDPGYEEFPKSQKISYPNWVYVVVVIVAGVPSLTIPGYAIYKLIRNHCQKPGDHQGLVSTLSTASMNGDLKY

The target of this experiment is Human B0AT1 (Homo sapiens (Human), UniProt Q695T7). Put plainly: hB0AT1 inhibitory test (phenylalanine uptake). The experiment is classed as cell-based. The settings on record: Human B0AT1 stable expression CHO cells; [3H]-L-phenylalanine uptake, phenylalanine 0.25 mM. In outline:
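CHO cells stably expressing human B0AT1, in sodium-containing HEPES buffer with 0.01% BSA, preincubated with compound (0.5% DMSO) 30 min or longer at ambient temperature. Uptake of [3H]-L-phenylalanine (0.25 mM final) read by scintillation, analysed at 100-200 min; non-specific uptake from […] N-(4-bromophenyl)-3,5-dichloro-2-hydroxybenzamide, IC50 by logistic nonlinear regression.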
Take `CC1CCN(C(=O)CNC(=O)/C=C/c2ccc(C(F)(F)F)cc2)c2ccnn21` (stereo not shown) [I-187]: the pIC50 was 7.59.

For `CS(=O)(=O)Nc1ccc2c(c1)CCN(C(=O)CNC(=O)/C=C/c1ccc(C(F)(F)F)cc1)C2` [I-188], the pIC50 was 7.47. Molecule `NS(=O)(=O)c1ccc2c(c1)CN(C(=O)CNC(=O)/C=C/c1ccc(C(F)(F)F)cc1)CC2` [I-189] had a pIC50 of 7.46. The pIC50 values of the last two molecules are within 0.2 log units of each other.

In turn, `N#Cc1cnn2c1CN(C(=O)CNC(=O)/C=C/c1ccc(C(F)(F)F)cc1)CC2` [I-190] gave a pIC50 of 7.68.

Turning to `O=C(/C=C/c1ccc(C(F)(F)F)cc1)NCC(=O)N1CCc2cccc(C(F)(F)F)c2C1` [I-191], the pIC50 is 7.51.

As for `N#Cc1cccc2c1CCN(C(=O)CNC(=O)/C=C/c1ccc(C(F)(F)F)cc1)C2` [I-192], the pIC50 is 7.52.

As to `Cc1cccc2c1CN(C(=O)CNC(=O)/C=C/c1ccc(C(F)(F)F)cc1)CC2` [I-193], the pIC50 was 7.30. Under `O=C(/C=C/c1ccc(C(F)(F)F)cc1)NCC(=O)N1CCc2c(cccc2C(F)(F)F)C1` [I-194] stands 6.85; under `O=C(/C=C/c1ccc(C(F)(F)F)cc1)NCC(=O)N1CCc2ccc(Br)cc2C1` [I-195], 7.27; under `O=C(/C=C/c1ccc(C(F)(F)F)cc1)NCC(=O)N1CCc2cccc(Br)c2C1` [I-196], 7.77.

The molecule `N#Cc1ccc2c(c1)CN(C(=O)CNC(=O)/C=C/c1ccc(C(F)(F)F)cc1)CC2` [I-197] gave a negative-log IC50 (pIC50) of 7.60. Next, `O=C(/C=C/c1ccc(C(F)(F)F)cc1)NCC(=O)N1CCn2ncc(Cl)c2C1` [I-202]: 7.66; `CNC(=O)c1cc2n(n1)CCN(C(=O)CNC(=O)/C=C/c1ccc(C(F)(F)F)cc1)C2` [I-203]: 7.35. Next, `C[C@@H]1c2ncnn2CCN1C(=O)CNC(=O)/C=C/c1ccc(C(F)(F)F)cc1` [I-204]: 6.09; `CNC(=O)c1nc2n(n1)CCN(C(=O)CNC(=O)/C=C/c1ccc(C(F)(F)F)cc1)C2` [I-205]: 7.06; `CN(C)C(=O)c1nc2n(n1)CCN(C(=O)CNC(=O)/C=C/c1ccc(C(F)(F)F)cc1)C2` [I-206]: 7.11.

For `O=C(/C=C/c1ccc(C(F)(F)F)cc1)NCC(=O)N1CCn2ncnc2C12CC2` [I-207], the pIC50 was 6.49.

For `CC(O)c1cc2n(n1)CCN(C(=O)CNC(=O)/C=C/c1ccc(C(F)(F)F)cc1)C2` (stereo not shown) [I-208], the pIC50 was 7.30. Under `Cc1nnc(CN(CC2(F)CC2)C(=O)CNC(=O)/C=C/c2ccc(C(F)(F)F)cc2)o1` [I-209] stands 7.49. For the molecule `COCC(C)N(Cc1nnc(C)o1)C(=O)CNC(=O)/C=C/c1ccc(C(F)(F)F)cc1` (stereo not shown) [I-210], the negative logarithm of the IC50 (pIC50) is 6.78. Next, `CCc1nnc(CN(CC2(F)CC2)C(=O)CNC(=O)/C=C/c2ccc(C(F)(F)F)cc2)o1` [I-211]: 7.21; `Cc1nnc(CN(CC2(F)CCC2)C(=O)CNC(=O)/C=C/c2ccc(C(F)(F)F)cc2)o1` [I-212]: 7.37. Next, `O=C(/C=C/c1ccc(C(F)(F)F)cc1)NCC(=O)N1CC[C@H](Cn2cccn2)C1` [I-213]: 6.97; `O=C(/C=C/c1ccc(C(F)(F)F)cc1)NCC(=O)N1CC[C@@H](Cn2cccn2)C1` [I-214]: 6.14; `CNC(=O)[C@H]1C[C@H](n2cccn2)CN1C(=O)CNC(=O)/C=C/c1ccc(C(F)(F)F)cc1` [I-215]: 6.33. Next, `CNC(=O)[C@@H]1C[C@H](n2cccn2)CN1C(=O)CNC(=O)/C=C/c1ccc(C(F)(F)F)cc1` [I-216]: 6.79; `COC1CN(C(=O)CNC(=O)/C=C/c2ccc(C(F)(F)F)cc2)Cc2ccc(Br)cc21` (stereo not shown) [I-217]: 6.94; `CCC1Cn2ncnc2CN1C(=O)CNC(=O)/C=C/c1ccc(C(F)(F)F)cc1` (stereo not shown) [I-218]: 6.45. `COCC1Cn2ncnc2CN1C(=O)CNC(=O)/C=C/c1ccc(C(F)(F)F)cc1` (stereo not shown) [I-219] showed a pIC50 of 6.58. The molecule `NS(=O)(=O)c1ccc2c(c1)CCN(C(=O)CNC(=O)/C=C/c1ccc(C(F)(F)F)cc1)C2` [I-220] showed a pIC50 of 7.37.

`CNS(=O)(=O)c1ccc2c(c1)CCN(C(=O)CNC(=O)/C=C/c1ccc(C(F)(F)F)cc1)C2` [I-221] gave a pIC50 of 7.36.

`O=C(/C=C/c1ccc(C(F)(F)F)cc1)NCC(=O)N1CCn2ncc(C(=O)N3CCCC3)c2C1` [I-222]: the pIC50 is 7.48. Next, `CCN(CC)C(=O)c1cnn2c1CN(C(=O)CNC(=O)/C=C/c1ccc(C(F)(F)F)cc1)CC2` [I-223]: 7.39; `NC(=O)c1cnn2c1CN(C(=O)CNC(=O)/C=C/c1ccc(C(F)(F)F)cc1)CC2` [I-224]: 7.36. Consider `CNC(=O)c1cnn2c1CN(C(=O)CNC(=O)/C=C/c1ccc(C(F)(F)F)cc1)CC2` [I-225], for which the pIC50 is 7.36. Consider `CN(C)C(=O)c1cnn2c1CN(C(=O)CNC(=O)/C=C/c1ccc(C(F)(F)F)cc1)CC2` [I-226], for which the pIC50 is 7.17. Under `O=C(/C=C/c1ccc(C(F)(F)F)cc1F)NCC(=O)N1CCc2cc(Br)cc(F)c2C1` [I-236] stands 7.47.

As for `O=C(/C=C/c1ccc(C(F)(F)F)cc1)NCC(=O)N1CCc2cc(Br)ccc21` [I-260], the pIC50 is 7.62. Take `O=C(/C=C/c1ccc(C(F)(F)F)cc1)NCC(=O)N1CCc2c(ccc(C(=O)O)c2F)C1` [I-261, 5-fluoro-2-[2-[[(E)-3-[4-(trifluoromethyl)phenyl]prop-2-enoyl]amino]acetyl]-3,4-dihydro-1H-isoquinoline-6-carboxylic acid]: the negative logarithm of the IC50 (pIC50) is 6.65. As for `O=C(/C=C/c1ccc(C(F)(F)F)cc1)NCC(=O)N1CCc2cc(C(=O)O)c(F)cc2C1` [I-262], the pIC50 is 6.36. Under `O=C(/C=C/c1ccc(C(F)(F)F)cc1)NCC(=O)N1CCc2nc(C(=O)O)ccc2C1` [I-263] stands 6.70; under `O=C(/C=C/c1ccc(C(F)(F)F)cc1)NCC(=O)N1CCc2cc(C(=O)O)ncc2C1` [I-264], 7.26; under `O=C(/C=C/c1ccc(C(F)(F)F)cc1)NCC(=O)N1CCn2nc(C(=O)O)c(-c3ccc(C(F)(F)F)cc3)c2C1` [I-265], 7.18. `O=C(/C=C/c1ccc(C(F)(F)F)cc1)NCC(=O)N1CCn2nc(C(=O)O)c(C3CCCCC3)c2C1` [I-266] had a pIC50 of 6.88.

Molecule `O=C(/C=C/c1ccc(C(F)(F)F)cc1)NCC(=O)N1CCn2nc(C(=O)O)c(-c3ccc(F)cc3)c2C1` [I-267] showed a pIC50 of 7.08. Compared with the last molecule, the pIC50 is 0.20 log units higher. Next, `O=C(/C=C/c1ccc(C(F)(F)F)cc1)NCC(=O)N1CCn2nc(C(=O)O)c(C3CC3)c2C1` [I-268]: 7.10; `O=C(/C=C/c1ccc(C(F)(F)F)cc1)NCC(=O)N1CCn2nc(C(=O)O)c(Br)c2C1` [I-269]: 6.84. Under `O=C(/C=C/c1ccc(C(F)(F)F)cc1)NCC(=O)N1CCc2ccc(C(=O)O)cc2C1` [I-270] stands 6.77; under `O=C(/C=C/c1ccc(C(F)(F)F)cc1)NCC(=O)N1CCc2c(cccc2C(=O)O)C1` [I-271], 6.16; under `O=C(/C=C/c1ccc(S(F)(F)(F)(F)F)cc1)NCC(=O)N1CCn2nc(C(=O)O)cc2C1` [I-272], 6.85. Under `O=C(/C=C/c1ccc(C(F)(F)F)cc1)NCC(=O)N1CCn2nc(C(=O)O)cc2C1` [I-273] stands 6.90; under `O=C(/C=C/c1ccc(C(F)(F)F)cc1)NCC(=O)N1CCn2ncc(C(=O)O)c2C1` [I-274], 6.27.
